Results reported in PMC6389896 (Communications Biology, 2019).
Several values for one entry are separate records, joined by “and”; a condition that tells them apart may be missing. Equal entries are not always repeated. Where two headings read alike, the source gives them in different places.

Tests used:
[1] = Oxytocin in CSF of the third ventricle after subcutaneous injection; assay type: in vivo, mouse; conditions: 90 min after sc 30 ng, 0 min = 100, individual animals, listed as OT
Procedure: In separate experiments we cannulated the third ventricles of WT and Ager^−/− mice and withdrew CSF for oxytocin measurements.
(§1) The CSF samples (5 μl) were thawed and diluted 1:20 in assay buffer. CSF samples were assayed without protein extraction due to the low protein concentration in the CSF. […] The inter-assay and intra-assay coefficients of variation were less than 15%.

[2] = Oxytocin in CSF after transient brain ischaemia (BCCAO) or sham operation; assay type: in vivo, mouse; conditions: individual animals, listed as OT
[3] = tested on: monkey brain capillary endothelial cells; assay: In vitro blood-brain barrier (BBB) model (MBT-24H), transport between luminal and abluminal chambers, control or RAGE shRNA knockdown; conditions: individual wells, listed as OT; for OT in lower (abluminal, brain) chamber: blood-to-brain, 3 h; for OT in luminal chamber: brain-to-blood, n = 3
Procedure: EC, monkey brain capillary endothelial cells; Peri, rat brain pericytes; Astro, rat astrocytes. […] The endothelial cells used in the upper chamber in a were treated with RAGE shRNA (knockdown, KD) or control (C or CNT) vectors to assess the effects of RAGE knockdown. […] Values are mean ± SEM
For the in vitro BBB model (MBT-24H, PharmaCo-Cell Co., Nagasaki, Japan), rat brain pericytes (1.5 × 10^4 cells/cm^2) and rat astrocytes (1.5 × 10^4 cells/cm^2) were seeded on the bottom of the collagen-coated polyester membranes of Transwell inserts (Corning Life Sciences, MA, USA). After 16 h the cells firmly adherent, monkey brain vascular endothelial cells (1.5 × 10^5 cells/cm^2) were then seeded on the upper side of the inserts in 24-well culture plates. The in vitro BBB models were established within 4 days of seeding the cells according to the manufacturer’s instructions. Trans-endothelial electrical resistance (TEER), which primarily reflects the flux of sodium ions through the cell layers in the culture conditions, was measured with an epithelial-volt-ohm metre and an Endohm-6 chamber electrodes (World Precision Instruments, Sarasota, FL, USA). The TEERs of the coated, cell-free filters were subtracted from the measured TEER values of the models and shown as Ω cm^2. The apparent permeability constants (Papp) between luminal and abluminal chambers were calculated from the distribution ratios. Endothelial expression was silenced using RAGE shRNA and the pSilencer 3.0-H1 vector (Ambion, Austin, TX, USA)[41]. […]

[4] = Microperfusion of the amygdala, oxytocin in microperfusates; assay type: in vivo, mouse; conditions: intranasal 20 ng, 0 min = 100, individual animals, listed as OT
Text: For microperfusion probe implantation, the male mice were with a subcutaneous injections of ketamine. The heads of anesthetised mice were fixed in a stereotactic frame (Narishige, Tokyo, Japan) and a 1 mm hole was drilled in the skull. The intact dura intact was then punctured to create defined opening of the meninges. Using the stereotactic frame, a healing dummy was slowly inserted into the three brain positions. The probe was fixed to the skull by using two anchor screws and biocompatible dental cement. All surgical procedures were completed within 30 min. A healing dummy was used to provide mechanical stability during the implantation and the healing period of 2 weeks. The microperfusion probe (a 4-mm length of the coaxial tube, 2.5 mm in diameter) consisting of a 20 G fluorinated ethylene propylene guide cannula was replaced before sampling with an inflow/outflow tubing on the day of the experiments. This tubing was connected to two glass Hamilton microsyringes placed in syringe pumps (Eicom, Osaka, Japan). Microperfusate was pumped into the probe at a flow rate of 2 µl/min, and the samples were withdrawn at the same flow rate. Sampling was conducted for 2 h. Both microprobes were perfused without sampling for 60 min before the first 30-min microperfusates from the amygdala, PVN, and prefrontal cortex were collected. The microperfusates were mixed under sterile conditions and consisted of 154 mM NaCl, 2.2 mM CaCl2, 5.6 mM KCl, 2.3 mM NaHCO3, and 0.15% BSA (pH 7.4)[80]. Beginning immediately after the nasal application, 4 additional microperfusates were taken at 30-min intervals. After the termination of the experiments, the brains were removed and snap-frozen to obtain 40-μm cryo-cut stained brain slices later for the histological verification of the perfusion site.

[5] = Oxytocin in CSF from the cisterna magna after administration, EIA; assay type: in vivo, mouse; conditions: for CSF OT: individual animals, listed as OT
Procedure: CSF was collected according to the protocol for sampling CSF from mice without detectable plasma contamination[77],[78]. Under ketamine anaesthesia (100 mg/kg intraperitoneally), the occipital skull was exposed, and the dura mater of the cisterna magna appeared as a glistening and clear reverse triangle through which the medulla oblongata, a major blood vessel (arteria dorsalis spinalis), and CSF space were visible. A capillary tube was inserted into the cisterna magna through the dura mater, blood-free CSF samples were collected with a 32G needle and immediately frozen with dry ice prior to storage at −80 °C. After CSF collections, blood samples were obtained by cardiac puncture from the mice under continuous ketamine anaesthesia.
as §1

[6] = cited from earlier work
[7] = human or primate CSF, mammalian hippocampus and amygdala; cited from earlier work
[8] = parameters: method as in earlier work; conditions: i.n. application of 50 μg oxytocin in female pigs; ref 18 (Rault et al.); cited from earlier work

OT in luminal chamber ([3]; 1 ng/ml abluminal, RAGE KD): 0.32 pg/mL and 0.34 pg/mL and 0.36 pg/mL
OT in luminal chamber ([3]; 1 ng/ml added to abluminal chamber, control (C)): 0.84 pg/mL and 1.12 pg/mL and 0.62 pg/mL
OT in luminal chamber ([3]; 10 ng/ml abluminal, RAGE KD): 2 pg/mL and 1.68 pg/mL and 0.8 pg/mL
OT in luminal chamber ([3]; 10 ng/ml abluminal, control (C)): 4 pg/mL and 5.2 pg/mL and 5.4 pg/mL
apparent permeability constant (Papp) ([3]; head 10 ng/ml, RAGE KD, calculated from distribution ratios): 0.076 x10^-6 and 0.098 x10^-6
CSF OT ([5]; WT+Tg (endothelial human RAGE) mice, 60 min after sc oxytocin): 1.066% and 1.83% and 1.926% and 1.872%
oxytocin concentrations in the CSF of Ager-/- mice after injection ([5]; sc 30 ng/mouse, Ager-/- mice): remained at baseline levels
time of maxima of oxytocin in CSF from the cisterna magna ([5]; sc 30 ng/mouse, WT mice): 1 to 2 h
time of return of CSF oxytocin to baseline ([5]; sc 30 ng/mouse, WT mice): 4 h
SMILES: CC[C@H](C)[C@@H]1NC(=O)[C@H](Cc2ccc(O)cc2)NC(=O)[C@@H](N)CSSC[C@@H](C(=O)N2CCC[C@H]2C(=O)N[C@@H](CC(C)C)C(=O)NCC(N)=O)NC(=O)[C@H](CC(N)=O)NC(=O)[C@H](CCC(N)=O)NC1=O [oxytocin, Oxytocin]
OT % in CSF of the 3rd ventricle ([1]; Ager+/+ male mice): 295% and 138% and 171% and 41% and 195% and 116% and 100% and 188% and 206%
OT % in CSF of the 3rd ventricle ([1]; Ager-/- male mice): 137% and 73% and 77% and 133% and 80% and 118% and 115% and 103%
CSF OT ([2]; Ager-/- BCCAO male mice): 121.746% and 129.498% and 127.909% and 71.8544% and 61.8033% and 79.0857% and 110.296% and 99.9236% and 126.34%
CSF OT ([2]; Ager-/- Sham male mice): 71.8544% and 61.8033% and 67.0976% and 118.777% and 117.319% and 98.6976%
CSF OT ([2]; WT BCCAO male mice): 191.756% and 287.616% and 179.547% and 244.561% and 258.145%
CSF OT ([2]; WT Sham male mice, cisterna magna, after exogenous oxytocin): 155.233% and 188.051% and 122.984% and 133.451%
OT in lower (abluminal, brain) chamber ([3]; 1 ng/ml added to luminal chamber, control vector (C)): 10 pg/mL and 13 pg/mL and 13.5 pg/mL and 11.5 pg/mL and 22.2 pg/mL
OT in lower (abluminal, brain) chamber ([3]; 1 ng/ml luminal, RAGE shRNA knockdown (KD)): 5 pg/mL and 4.2 pg/mL and 2 pg/mL and 8 pg/mL
OT in lower (abluminal, brain) chamber ([3]; 10 ng/ml luminal, RAGE KD): 8 pg/mL and 8.5 pg/mL and 9 pg/mL and 5 pg/mL
OT in lower (abluminal, brain) chamber ([3]; 10 ng/ml luminal, control vector (C)): 21 pg/mL and 28 pg/mL and 15.5 pg/mL and 24 pg/mL and 27 pg/mL
apparent permeability constant (Papp) ([3]; head 1 ng/ml, RAGE KD, calculated from distribution ratios): 1.263 x10^-6 and 1.061 x10^-6 and 0.505 x10^-6 and 2.02 x10^-6
apparent permeability constant (Papp) ([3]; head 1 ng/ml, control (C), calculated from distribution ratios across chambers): 2.525 x10^-6 and 3.283 x10^-6 and 3.409 x10^-6 and 2.904 x10^-6
OT % in microperfusates of the amygdala ([4]; Ager-/- mice, 30 min): 116% and 89% and 169% and 98% and 65% and 54% and 55% and 105% and 67% and 87% and 79%
OT % in microperfusates of the amygdala ([4]; Ager-/- mice, 60 min): 66% and 55% and 85% and 123% and 83% and 92% and 78% and 84% and 76% and 112% and 77% and 93% and 79%
OT % in microperfusates of the amygdala ([4]; Ager-/- mice, 90 min): 137% and 158% and 73% and 162% and 90% and 65% and 76% and 99% and 129% and 131% and 83% and 110% and 163%
OT % in microperfusates of the amygdala ([4]; WT mice, 30 min): 211% and 198% and 89% and 141% and 104% and 174%
OT % in microperfusates of the amygdala ([4]; WT mice, 60 min): 190% and 195% and 144% and 170% and 93% and 133%
OT % in microperfusates of the amygdala ([4]; WT mice, 90 min): 204% and 156% and 78% and 216% and 359% and 124%
CSF OT ([5]; KO (Ager-/-) mice, 60 min after sc oxytocin): 1.096% and 1.022% and 1.298% and 0.875% and 0.8155% and 0.9128% and 1.16% and 0.679% and 1.176% and 1.081% and 0.9794% and 0.8625%
CSF OT ([5]; KO+Tg mice, 60 min after sc oxytocin): 1.051% and 1.1275% and 0.9794% and 1.244% and 1.354% and 2.625%
CSF OT ([5]; female Ager-/- mice, 60 min after sc OT): 110.13% and 105.01% and 103.76% and 85.23% and 99.81% and 68.15%
CSF OT ([5]; female WT mice, 60 min after sc OT): 169.21% and 199.15% and 65.08% and 204.46% and 219.88% and 175.37% and 233.36% and 183.92% and 188.35%
share of peripherally applied oxytocin that reaches the CNS ([6]; 5 μg, 10 min after subcutaneous or intraperitoneal administration, rats): approximately 0.002%
bioavailability ([6]; LC/MS after administration of 500 μg oxytocin in rats): approximately 2%
share of oxytocin peptide accumulated on the BBB ([6]; intracarotid artery bolus of 125I- or 3H-labelled oxytocin, rats): 1–2%
time of maximal oxytocin concentrations after peripheral administration [7]: 10 to 60 min
bioavailability [8]: 0.001%
